Laboratory results reported in US4011390A, “Semi-synthetic aminocyclitol aminoglycoside antibiotics and methods for the preparation thereof” (Schering-Plough Corporation, priority 1974, dated 1977).
Like-named read-outs stand apart in the source and are kept apart here.

What was measured:
Pseudomonas aeruginosa = experiment: Protection Tests in Mice; assay type: in vivo
Text: (§1) In vivo Activity of the Mutamicin 1 and Sisomicin
(§2) Protection Tests in Mice

Staphylococcus = experiment: Protection Tests in Mice; assay type: in vivo; settings: Staphylococcus Gray, read-out: PD50
Text: as §1, §2

Escherichia coli = experiment: Protection Tests in Mice; assay type: in vivo
Text: as §1, §2

Acute Toxicity = settings: mouse, in vivo

Compound: CN[C@@H]1[C@@H](O)[C@@H](O[C@@H]2[C@@H](O)[C@H](O[C@H]3OC(CN)=CC[C@H]3N)[C@@H](N)C[C@H]2N)OC[C@]1(C)O [Sisomicin, O-2,6-Diamino-2,3,4,6-tetradeoxy-α-D-glycero-hex-4-eno-pryanosyl(1→4)-O-[3-deoxy-4-C-methyl-3-(methylamino)-B-L-arabinopyranosyl(1→6)] -2-deoxy-D-streptamine, reference compound]
- ED50 (Pseudomonas aeruginosa; Pseudomonas aeruginosa 2552, read-out: PD50): 2.8 mg/kg
- ED50 (Pseudomonas aeruginosa; Pseudomonas aeruginosa 2557, read-out: PD50): 2.7 mg/kg
- ED50 (Pseudomonas aeruginosa; sc, Pseudomonas aeruginosa Sc., read-out: PD50): 1.1 mg/kg
- ED50 (Staphylococcus): 1.8 mg/kg
- ED50 (Escherichia coli; Escherichia coli 6922, read-out: PD50): 2 mg/kg
- ED50 (Escherichia coli; Escherichia coli Sc., read-out: PD50): 1.7 mg/kg
- LD50 (Acute Toxicity; ip): 190 mg/kg
- LD50 (Acute Toxicity; iv): 34 mg/kg
